One may read the Emax as the greatest response seen or fitted, relative to the assay's reference. Broadly, the IC50 is the concentration needed to halve the response being measured. Lower therefore signals inhibition by little substance. For orientation: EC50 means the concentration giving half of the maximal effect. Higher therefore signals weaker potency.

The text below walks through data of ChEMBL document CHEMBL1129231, “Bone targeted drugs 2. synthesis of estrogens with hydroxyapatite affinity” (Bioorg Med Chem Lett, 1996).

In assay [1] the target is Estrogen receptor (Rattus norvegicus) (UniProt P06211+Q62986). In words: Relative efficacy for estrogen receptor compared to estradiol. It is filed as protein assay.
In assay [2] the target is Estrogen receptor (Rattus norvegicus, UniProt P06211+Q62986). Description: Binding affinity for rat estrogen receptor. The assay is classed as protein assay.
In assay [3] the test system is Ishikawa. In words: Agonist activity in Ishikawa human endometrial cells. The assay is classed as functional, cell-based.

In assay [1], `CC[C@H](c1ccc(O)cc1)[C@@H](CC)c1ccc(O)cc1` [HEXESTROL] showed a maximal response (Emax) of 80%. The IC50 in assay [2] came to 2 nM. The compound further displayed an EC50 in assay [3] of 0.1 nM.
`CC[C@@H](c1ccc(O)cc1)[C@H](Cn1cc(C(=O)O)c(=O)[nH]1)c1ccc(O)cc1` had a half-inhibitory concentration (IC50) in assay [2] of 100000 nM. The compound also returned an EC50 in assay [3] of 20000 nM.
The corresponding values for `CC[C@@H](c1ccc(O)cc1)[C@H](CCCCn1cc(C(=O)O)c(=O)[nH]1)c1ccc(O)cc1` are 5000 nM and 1100 nM.
`CC[C@@H](c1ccc(O)cc1)[C@H](CCCCn1cc(C(=O)O)cn1)c1ccc(O)cc1` gave an EC50 in assay [3] of 1600 nM.
